# Laboratory results taken from article PMC10613275 (Scientific Reports, 2023).
# Entries after “also recorded” stand apart in the source; their conditions may differ.
# Legend:
# rats [1] = conditions: rat, in vivo; cited from earlier work
# HepG2 cells = conditions: HepG2, 100 µM ref 2; cited from earlier work
# Caco-2 cells = conditions: Caco-2, 100 µM ref 2; cited from earlier work
# [2] = parameters: method as in PMID 24239523; conditions: concentrations up to 500 μM ref 5; cited from earlier work
# rats [3] = test system: rats; parameters: method as in PMID 32461162; conditions: parental rats F0 and F1 in vivo ref 3; cited from earlier work
# CHO-K1 cells (hprt gene) [4] = assay: CHO/HPRT mutation assay; assay type: cell-based, Chinese hamster; conditions: for Mutagenicity result: 50 µM without, 500 µM with metabolic activation
# Description: The test with metabolic activation was performed as described in the OECD protocol, the ASTM standard[23] and other protocols[30],[31] and publications. For the test, cryopreserved CHO-K1 cells after the mutant cleansing were used. Mutant cleansing was performed according to[30], i.e. cells were cultivated three days in HAT medium, one day in HT medium and then frozen.
# One passage after the thawing, 1 × 10^6 cells were seeded in 60 mm cultivation plates as described in[32]. […] The final concentration of the solvent, DMSO, was 1%. […] EMS at final concentration 2 mM as recommended in[31] served as a positive control. 3-MC at final concentration […][22] served as a positive control for metabolic activation. 1% DMSO was used as a VC. Sole cultivation medium served as a negative control (NC). After 4 h, the medium with tested substances was removed, plates were washed with PBS and fresh medium with 10% FBS was added.
# During the expression period (1 week), the cells on all 60 mm plates were passaged once. On day 8, cells were trypsinized, resuspended, counted and 2 × 10^5 cells of each plate were seeded on 60 mm plates in triplicates in the presence of a selective agents, 6-TG (30 µM) as described in[32]. […] 300 cells without the selective agent were seeded in a parallel to evaluate plating efficiency (PE). On day 15, the plates were washed with PBS, cells were fixed with ice cold methanol for 10 min and stained with 0.05% crystal violet in water for 30 min[33]. After washing with water, formed colonies were counted using Schuett Count (Schuett-biotec, Göttingen, Germany). Calculations were done as described in[29]. PE was calculated according to a general Eq. 1. Particular PE at selective conditions was calculated according to Eq. 2. Particular PE at non-selective conditions was calculated according to Eq. 3. Mutation frequency (MF) was calculated according to Eq. 4.1 PE=numberofcoloniesformed/numberofcellsplated 2 PEselective=numberofmutantcoloniesNMC/200,000 3 PEnon-selective=numberofcoloniesformed/300 4 MF=PEselectiveconditions/PEnon-selectiveconditions
# HeLa9903 cells = assay: Cytotoxicity, cell viability (resazurin assay), HeLa9903; assay type: cell-based, human; conditions: 1 nm–100 µM, 1 day
# [5] = as above; assay type: cell-based, human; conditions: human, HeLa9903 cells, all concentrations up to 100 µM, vs vehicle control, read-out: Relative viability
# RPTEC/TERT1 cells = assay: Nephrotoxicity, RT-qPCR of kidney damage biomarkers; assay type: cell-based, human; conditions: up to 100 µM
# Description: RPTEC/TERT1 cells were seeded at a concentration of 2 × 10^5 cells/ml in ProxUp2 medium into 60 mm Petri dishes. After 24 h, the cells were washed with PBS and […] metabolites (100 μM) were applied in fresh ProxUp2 medium. The cells were incubated with samples for 48 h, after which the cells were washed with PBS and dishes were frozen in - 160 °C. The RNA was isolated using RNeasy Plus Mini Kit (Qiagen, Hilden, Germany). The RNA concentration and purity was determined with NanoDrop One (ThermoFisher Scientific) spectrophotometr. The cDNA synthesis was performed from 0.1 μg of total RNA with an iScript Reverse Transcription Supermix (Bio-Rad, Hercules, California, USA). Quantitative real-time PCR (qPCR) was performed using the qPCR Bio-Rad C100 Touch System (Bio-Rad) with a 96-well block. The reaction mixture consisted of 1 μl of specific 20 × PrimePCR Assay (Bio-Rad), 10 μl of 2 × SsoAdvance Universal Supermix (Bio-Rad), 2 μl of cDNA sample, 7 μl of nuclease-free water. The final reaction volume was 20 μl. […] Cycling parameters were: initial denaturation at 95 °C for 2 min, followed by 40 cycles of 95 °C for 5 s and 60 °C for 30 s. Fluorescence values were acquired after each extension phase. Samples were analyzed in triplicate, and samples with a standard deviation of duplicates > 0.2 Ct were re-analyzed. A non-template control containing nuclease-free water instead of cDNA as well as non-RT control containing purified RNA without reverse transcription was used. The real-time PCR study followed the MIQE guidelines. Relative transcript levels of the estimated genes in the cell lines were compared using the software CFX Maestro Software 2.3 (Bio-Rad).
# [6] = Metabolic activation with rat liver S9, GC/HRMS; assay type: in vitro ADME; conditions: 37 °C, 1 h; to lysmerylic acid and p-tert-butylbenzoic acid as major metabolites
# Description: Metabolic activation was verified using GC/HRMS as described above.
# [7] = test system: Chinese hamster lung and human colonic epithelial cells; parameters: method as in PMID 32461162, PMID 24239523; conditions: in vitro ref 3, 5; cited from earlier work
# CHO-K1 cells (hprt gene) [8] = assay: CHO/HPRT mutation assay; assay type: cell-based, Chinese hamster; conditions: lilial 500 µM, 3MC 2 µg/ml
# NIH3T3 cells = conditions: NIH3T3 ref 2; cited from earlier work
# [9] = parameters: method as in earlier work; conditions: human volunteers, cited from earlier work
# [10] = parameters: method as in earlier work; conditions: rat, 1% p-BMHCA in ethanol, 120 µg substance/cm^2, 16 h ref 4; cited from earlier work
structure (smiles),measurement,setting,value
"CC(C=O)Cc1ccc(C(C)(C)C)cc1 (stereo not drawn) [Lilial, 3-(4-(tert-butyl)phenyl)-2-methylpropanal]","Oral dose that reduced body weight, gave clinical and systemic toxicity",rats [1],≥ 50 mg/kg/day
same,Decrease in cell viability,HepG2 cells,23%
same,Decrease in cell viability,Caco-2 cells,23%
same,Genotoxicity at the chromosomal level (clastogenicity or aneuploidy) or single-strand breaks,[2],did not induce genotoxicity
same,Effects on fertility and reproductive performance,rats [3],no adverse effects
same,Mutagenicity result,CHO-K1 cells (hprt gene) [4],Non mutagenic
same,Mutagenicity result,CHO-K1 cells (hprt gene) [4]; listed as lilial,not mutagenic
same,MF (/10^6) mutation frequency,"CHO-K1 cells (hprt gene) [4]; Table 3, without activation, lilial 50 µM, EMS 240 µg/ml (2 mM), 4 h",9 ± 4 /10^6
same,NMC (number of mutant colonies),"CHO-K1 cells (hprt gene) [4]; Table 4, With S9, lilial 500 µM, 3MC 2 µg/ml",1 ± 1
same,Cytotoxicity result,HeLa9903 cells,Non toxic up to 100 µM
same,viability at 1 day,[5],> 80%
same,Nephrotoxicity result,RPTEC/TERT1 cells,Non nephrotoxic
same,Nephrotoxicity result,RPTEC/TERT1 cells; listed as lilial,"not toxic; also recorded: neither lilial, nor its metabolites, demonstrated nephrotoxic activity"
same,Metabolism in presence of Arochlor-induced rat liver S9 fractions,[6],almost completely metabolised
same,Mutagenicity in mammalian cell gene mutation assay,[7],not mutagenic
same,MF (/106) mutation frequency,"CHO-K1 cells (hprt gene) [8]; Table 4, With S9",6 ± 5 /106
same,NMC (number of mutant colonies),"CHO-K1 cells (hprt gene) [8]; Table 4, Without S9",0
same,Effect on cell viability,NIH3T3 cells,no negative effect
same,Mean of applied dose detected in urine,"[9]; dermal 6 h, urine within 24 h ref 4",1.4%
same,Topical application recovery,[9]; dermal 6 h ref 4,71 ± 10%
same,In vitro dermal absorption,[10],78.4%
